Source: patent US12133923B2, “Lipid nanoparticle compositions and uses thereof” (ReCode Therapeutics, Inc., priority 2022, dated 2024)
Like-named read-outs stand apart in the source and are kept apart here. One block for each molecule: values may come before it.

Tests used:
[1] = Single dose inhalation study: LNP component lipid levels in blood, lung, liver, spleen; format: in vivo, cynomolgus monkey; details: for lipid signal in lung remaining: 72 hr; for lipid signal in lung remaining, % of peak: 7 days; for time of peak lipid level in lung tissue: after inhaled Composition A-DNAI1-HA
Procedure: Group 1 animals were terminated at 24-hours post end of exposure.
Levels of the LNP component lipids 4A3-SC7, 14:0 EPC, and DMG-PEG were measured in blood, lung, liver, and spleen samples following administration of Composition-DNAI1-HA. Blood samples were collected at pre-treatment, 0.5 hr, 1 hr, 6 hr, 24 hr, 48 hr, and 7 days postadministration and processed to separate the plasma and blood cell fractions. Spleen and liver samples were collected at 6 hr, 24 hr, 72 hr, and 7 days post-exposure. Lung tissue was sampled in three locations from the right lung of each animal: Caudal lobe, cranial lobe, and middle lobe at each necropsy time point.

[2] = tested on: CFTR function in human Bronchial Epithelials (hBE); assay: CFTR function (chloride conductance, MTECC24) in hBE after nebulized CFTR mRNA LNPs; format: cell-based
Procedure: CFTR mRNA was incorporated into various LNP compositions: DODAP-containing Composition B and various non-DODAP lipid nanoparticles (400 μL for Composition A and Composition H) stored in 1× phosphate buffered saline (PBS). The compositions were nebulized using a VitroCell® system with a mesh nebulizer to deliver aerosolized LNPs to primary human Bronchial Epithelials (hBE). CFTR function was measured. The composition of the nanoparticles used in the study is shown below in Table 13.
Experiments were conducted to evaluate the impact of cholesterol on the stability and efficacy of lipid nanoparticle (LNP) compositions. Composition B lipid nanoparticles containing higher molar percentage of cholesterol were created and subjected to test its CFTR function. Chloride conductance was measured with multi transepithelial current clamp system (MTECC24). […] Further, lipid nanoparticles containing 50% molar percentage of cholesterol were created, measured its CFTR function and resulted that increased molar percentage of cholesterol in lipid nanoparticles enhanced CFTR function (FIG. 41). […]
Cystic Fibrosis treatment drugs (Trifkafta or Orkambi) were treated at the time of nebulization. At 24 h post-treatment, chloride conductance was measured with multi transepithelial current clamp system (MTECC24). […]

[3] = tested on: hBE cells; assay: Transepithelial electrical resistance (TEER) in hBE; format: cell-based, human; details: W1282X/W1282X and R553X/W1282X hBE; pre-treatment before LNP nebulization
Procedure: As used herein, the phrase “transepithelial electrical resistance (TEER)” is a measurement method of electrical resistance across a cellular monolayer to confirm the integrity and permeability of a monolayer. Measurement of TEER is described, for example, in Srinivasan et al. J. Lab. Automation 20:107-126 (2015).
Cystic Fibrosis treatment drugs (Trifkafta or Orkambi) were treated at the time of nebulization. At 24 h post-treatment, chloride conductance was measured with multi transepithelial current clamp system (MTECC24). In both cell lines, nebulization of lipid nanoparticles containing CFTR mRNA rescued CFTR function.
To determine whether aerosolized lipid nanoparticles affect cell toxicity, six ΔF508/ΔF508 homozygous genotypes hBE cells were dosed lipid nanoparticles and measured electrical resistance across a cellular monolayer and released lactic acid dehydrogenase (LDH).
To determine whether mucus production affects transfection efficiency of lipid nanoparticles, W1282X/W1282X hBEs and R553X/W1282X hBEs cells were pre-treated Dithiothreitol (DTT) before lipid nanoparticles were nebulized (experimental scheme shown in FIG. 49). […] Cell toxicities were measured by transepithelial electrical resistance (TEER).

Compound: CCCCCCCCCCCCCC(=O)OCC(COP(=O)(OCC)OCC[N+](C)(C)C)OC(=O)CCCCCCCCCCCCC (stereo not shown) [14:0 EPC, 1,2-dimyristoyl-sn-glycero-3-ethylphosphocholine]
lipid signal in lung remaining ([1]; high dose): 2.5%
lipid signal in lung remaining ([1]; low dose): 13.2%
lipid signal in lung remaining, % of peak ([1]; high dose): 0.8%
lipid signal in lung remaining, % of peak ([1]; low dose): 0.7%
time of peak lipid level in lung tissue [1]: 6 h
lipid level in liver ([1]; all samples except one high dose sample at 6 hr (below assay LOQ)): not detected
concentration at 6 hr ([1]; both sexes, cynomolgus monkey, lung, inhaled, 0.34 mg/kg, 6 hr, high dose (group 3), read-out: lipid level in lung): 13900 to 66700 ng/g
concentration at 1 hr ([1]; both sexes, cynomolgus monkey, plasma, inhaled, 0.34 mg/kg, high dose (group 3), 1 hr, read-out: lipid level in plasma): 1.03 ng/mL
concentration at 6 hr ([1]; both sexes, cynomolgus monkey, plasma, inhaled, 0.34 mg/kg, high dose (group 3), 6 hr, read-out: lipid level in plasma): 1.97 ng/mL
concentration at 6 hr ([1]; both sexes, cynomolgus monkey, spleen, inhaled, 0.34 mg/kg, high dose sample at 6 hr, all others not detected, read-out: lipid level in spleen): 9.56 ng/g
lipid level in plasma ([1]; high dose (group 3), 1 hr): 0.99 ng/mL

Compound: CC(C)(C)c1cc(C(C)(C)C)c(NC(=O)c2c[nH]c3ccccc3c2=O)cc1O [Ivacaftor]
rescue of CFTR function on addition of CFTR activator ([2]; R553X/W1282X and W1282X/W1282X hBE, after delivery of lipid nanoparticles): further increased rescue of CFTR function

Compound: O[C@H](CS)[C@H](O)CS (racemic) [DTT, Dithiothreitol]
cell toxicity by TEER [3]: cell integrity was not affected
chloride flux after nebulization of lipid nanoparticles ([2]; W1282X/W1282X and R553X/W1282X hBE, pre-treatment raised from 3 mM to 10 mM): correlated with higher chloride flux

lipid signal in lung remaining ([1]; high dose): 0.6%
lipid signal in lung remaining ([1]; low dose): 13%
lipid level in lung ([1]; 7 days post-administration, all samples except one caudal lobe sample in high dose group): below the limit of quantitation
time of peak lipid level in lung tissue [1]: 6 h
concentration at 6 hr ([1]; both sexes, cynomolgus monkey, lung, inhaled, 0.34 mg/kg, 6 hr post-exposure, high dose group, read-out: lipid level in lung): 9550 to 67800 ng/mL
Compound: CCCCCCCSCC(C)C(=O)OCCOC(=O)CCN(CCCN(C)CCCN(CCC(=O)OCCOC(=O)C(C)CSCCCCCCC)CCC(=O)OCCOC(=O)C(C)CSCCCCCCC)CCC(=O)OCCOC(=O)C(C)CSCCCCCCC (stereo not shown) [Composition 4A3-SC7]
